# Reference: the supplement of paper PMC10307832
# Legend:
# Trametinib + Bortezomib = compound: CC(=O)Nc1cccc(-n2c(=O)n(C3CC3)c(=O)c3c(Nc4ccc(I)cc4F)n(C)c(=O)c(C)c32)c1 [Trametinib] + CC(C)C[C@H](NC(=O)[C@H](Cc1ccccc1)NC(=O)c1cnccn1)B(O)O [Bortezomib] (partner 0.002 µM); experiment: relative viability (nuclei count vs DMSO), 5 days (fraction); higher = more cells survive
# How it was run: (§1)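 After 5 days of treatment, lung cancer cells in 1536-well plates were fixed and stained in a single step (final 0.05% Triton X-100, 1% formaldehyde, 1 ug/ml Hoechst) and their nuclei counted on 4× images. Treatment had been applied by pin tool the day after seeding as one drug alone or as a fixed anchor-drug dose with five library-drug doses (not always all listed) in √10 steps. Relative viability is the nuclei count of treated wells divided by that of vehicle wells, and values are medians of duplicate plates.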
# Trametinib + Decitabine = compound: CC(=O)Nc1cccc(-n2c(=O)n(C3CC3)c(=O)c3c(Nc4ccc(I)cc4F)n(C)c(=O)c(C)c32)c1 [Trametinib] + Nc1ncn([C@H]2C[C@H](O)[C@@H](CO)O2)c(=O)n1 [Decitabine] (partner 2 µM); experiment: as above
# How it was run: as §1
Cell Line,relative viability (Trametinib + Bortezomib; first compound 0.0025 µM),relative viability (Trametinib + Bortezomib; first compound 0.007906 µM),relative viability (Trametinib + Bortezomib; first compound 0.025 µM),relative viability (Trametinib + Bortezomib; first compound 0.07906 µM),relative viability (Trametinib + Bortezomib; first compound 0.25 µM),relative viability (Trametinib + Decitabine; first compound 0.0025 µM),relative viability (Trametinib + Decitabine; first compound 0.007906 µM),relative viability (Trametinib + Decitabine; first compound 0.025 µM),relative viability (Trametinib + Decitabine; first compound 0.07906 µM),relative viability (Trametinib + Decitabine; first compound 0.25 µM)
NCI-H650,1.06,1.15,0.791,0.729,0.276,0.346,0.294,0.345,0.301,0.261
IA-LM,0.621,0.392,0.174,0.178,0.111,,,,,
A-427,1.1,1.05,0.735,0.763,0.601,0.522,0.585,0.541,0.525,0.418
NCI-H2347,1.08,0.818,0.338,0.389,0.337,0.521,0.514,0.395,0.358,0.397
NCI-H1793,,,,,,0.458,0.4,0.447,0.334,0.228
NCI-H1651,0.967,0.9,0.801,0.83,0.43,0.559,0.689,0.48,0.422,0.333
HCC-78,0.399,0.404,0.4,0.395,0.332,0.81,0.662,0.621,0.683,0.66
NCI-H23,0.853,1.01,0.364,0.377,0.21,0.291,0.297,0.281,0.269,0.258
LOU-NH91,0.505,0.489,0.491,0.508,0.334,0.804,0.776,0.734,0.71,0.544
LXF-289,0.872,0.812,0.757,0.703,0.459,0.399,0.408,0.385,0.319,0.391
NCI-H460,1.03,0.82,0.544,0.346,0.043,0.481,0.389,0.361,0.305,0.112
NCI-H1792,0.971,0.85,0.647,0.597,0.455,0.436,0.443,0.318,0.364,0.291
EMC-BAC-2,1.05,0.99,0.865,1,0.859,0.974,0.95,0.827,,0.5
CAL-12T,0.784,0.734,0.645,1.43,0.454,,,,,
ChaGo-K-1,1.12,0.871,1.05,0.713,0.476,0.52,0.494,0.576,0.467,0.497
COR-L 105,0.748,0.612,0.389,0.315,0.335,0.64,0.609,0.486,0.375,0.36
NCI-H1944,,,,,,0.446,0.379,0.403,0.386,0.294
NCI-H2009,0.929,0.67,0.3,0.332,0.195,0.306,0.303,0.247,0.273,0.267
SW 900,,,,,,0.396,0.335,0.388,0.491,0.39
NCI-H441,0.474,0.55,0.72,0.475,0.17,0.272,0.248,0.259,0.25,0.168
NCI-H1437,0.463,0.257,0.179,0.205,0.174,0.574,0.471,0.557,0.394,0.431
PC-14,0.918,0.834,0.673,0.76,0.594,0.229,0.184,0.286,0.145,0.125
LCLC-103H,1.16,0.977,0.887,0.821,0.626,0.754,0.68,0.692,0.689,0.596
COR-L23,0.982,1,1.02,0.935,0.309,0.428,0.435,0.329,0.372,0.293
H3255,0.814,0.769,0.597,0.42,0.344,0.552,0.572,0.487,0.518,0.378

Cell Line,relative viability (Trametinib + Bortezomib; first compound 0.0025 µM),relative viability (Trametinib + Bortezomib; first compound 0.007906 µM),relative viability (Trametinib + Bortezomib; first compound 0.025 µM),relative viability (Trametinib + Bortezomib; first compound 0.07906 µM),relative viability (Trametinib + Bortezomib; first compound 0.25 µM),relative viability (Trametinib + Decitabine; first compound 0.0025 µM),relative viability (Trametinib + Decitabine; first compound 0.007906 µM),relative viability (Trametinib + Decitabine; first compound 0.025 µM),relative viability (Trametinib + Decitabine; first compound 0.07906 µM),relative viability (Trametinib + Decitabine; first compound 0.25 µM)
NCI-H2126,1.11,0.956,0.685,0.983,0.769,0.574,0.558,0.514,0.535,0.523
HCC-366,0.962,0.897,0.902,0.645,0.172,0.29,0.307,0.276,0.273,0.206
LU99A,1.08,1.21,0.815,0.726,0.407,0.796,0.813,0.59,0.665,0.511
HOP-62,0.776,0.956,0.425,0.439,0.186,0.199,0.229,0.252,0.235,0.227
HCC-15,0.946,0.62,0.731,0.492,0.203,0.519,0.464,0.501,0.248,0.234
HARA,1.09,1.06,0.983,0.745,0.0924,0.606,0.469,0.474,0.421,0.422
SK-MES-1,,,,,,0.381,0.304,0.341,0.247,0.273
NCI-H1355,0.981,1.04,0.554,0.847,0.266,0.346,0.353,0.309,0.347,0.34
NCI-H727,0.663,0.422,0.272,0.257,0.277,0.818,0.619,0.541,0.431,0.453
NCI-H520,0.612,0.485,0.444,0.44,0.126,0.445,0.504,0.535,0.502,0.473
NCI-H838,0.719,0.563,,0.557,0.224,0.466,0.416,0.457,0.448,0.403
HCC-44,0.926,0.905,0.946,0.816,0.585,0.894,0.924,1.05,0.943,0.848
LK-2,,,,,,0.309,0.259,0.181,0.18,0.147
HCC-827,0.943,0.989,0.974,0.92,0.748,0.365,0.289,0.315,0.274,0.236
SW 1573,0.806,0.514,0.888,0.743,0.417,0.393,0.37,0.317,0.308,0.181
NCI-H2023,0.957,0.791,0.582,0.806,0.212,0.211,0.187,0.237,0.207,0.154
EPLC-272H,1.02,0.841,0.516,0.737,0.157,0.357,0.324,0.326,0.336,0.293
SK-LU-1,1.13,0.815,0.726,0.623,0.326,0.585,0.632,0.473,0.431,0.455
NCI-H358,,,,,,0.2,0.191,0.142,0.209,0.155
ABC-1,0.301,0.299,0.255,0.251,0.235,0.884,1.16,1.02,1.24,0.837
EBC-1,0.631,0.544,0.427,0.376,0.337,,,,,
NCI-H1703,0.294,0.263,0.372,0.369,0.287,,,,,
NCI-H1395,,,,,,0.705,0.597,0.736,0.693,0.555
NCI-H2085,0.994,0.799,0.751,0.783,0.6,0.544,0.558,0.552,0.629,0.61
NCI-H1563,0.854,0.794,0.824,0.682,0.616,,,,,

Cell Line,relative viability (Trametinib + Bortezomib; first compound 0.0025 µM),relative viability (Trametinib + Bortezomib; first compound 0.007906 µM),relative viability (Trametinib + Bortezomib; first compound 0.025 µM),relative viability (Trametinib + Bortezomib; first compound 0.07906 µM),relative viability (Trametinib + Bortezomib; first compound 0.25 µM),relative viability (Trametinib + Decitabine; first compound 0.0025 µM),relative viability (Trametinib + Decitabine; first compound 0.007906 µM),relative viability (Trametinib + Decitabine; first compound 0.025 µM),relative viability (Trametinib + Decitabine; first compound 0.07906 µM),relative viability (Trametinib + Decitabine; first compound 0.25 µM)
NCI-H2087,0.899,0.669,0.446,0.327,0.129,0.207,0.203,0.148,0.117,0.125
NCI-H322M,1.29,1.14,0.879,1.03,0.717,0.691,0.681,0.631,0.585,0.566
NCI-H1734,0.901,0.987,,0.734,0.349,0.508,0.438,,0.426,0.453
NCI-H2228,1.02,0.876,0.801,0.711,0.433,,,,,
EKVX,0.797,0.628,0.6,0.373,0.331,0.36,0.351,0.326,0.372,0.222
NCI-H1299,1.04,0.992,0.971,0.955,0.739,,,,,
NCI-H596,0.759,0.892,0.795,1.47,0.474,0.967,0.96,0.952,0.968,0.739
NCI-H1975,0.303,0.224,0.206,0.173,0.169,0.332,0.336,0.345,0.261,0.278
NCI-H2170,,,,,,0.491,0.451,,0.435,0.425
NCI-H1666,0.639,0.591,0.499,0.452,0.401,0.742,0.684,0.622,0.602,0.5
PC-3 [JPC-3],0.862,0.815,0.837,0.716,0.262,0.807,0.724,0.757,,0.632
NCI-H1755,0.847,0.835,0.806,0.843,0.679,0.72,0.703,0.679,0.678,0.594
RERF-LC-KJ,0.91,1.02,0.926,0.877,0.661,0.683,0.68,0.609,0.695,0.475
NCI-H647,0.853,0.75,0.652,0.654,0.294,0.39,0.349,0.377,0.344,0.19
BEN,0.76,0.725,,0.531,0.657,0.768,0.663,0.5,0.506,0.654
201T,1.08,1.01,0.942,1.05,0.801,0.854,0.743,0.765,0.782,0.749
LC-2-ad,0.999,0.898,0.928,0.713,0.443,0.803,0.683,0.782,0.689,0.7
A549,,,,,,0.224,0.245,0.209,0.168,0.0957
NCI-H522,,,,,,0.783,0.602,0.678,0.64,0.672
LCLC-97TM1,0.616,0.482,0.128,0.0773,0.0973,0.275,0.287,0.206,0.203,0.169
NCI-H1915,0.931,0.816,0.825,0.756,0.139,0.268,0.248,0.24,0.227,0.188
NCI-H3122,0.985,0.74,0.595,0.432,0.361,0.416,0.383,0.315,0.279,0.268
NCI-H1648,,,,,,0.508,0.44,0.554,0.517,0.371
NCI-H2342,,,,,,0.775,0.69,0.646,0.673,0.637
Calu-6,1.08,0.813,0.376,0.236,0.224,,,,,
